These results are taken from patent US7576062B2, “Compounds with growth hormone releasing properties” (Novo Nordisk A/S, priority 1998, dated 2009).

Series [1] deals with trypsin, chymotrypsin and elastase. The experiment in a line: Metabolic stability in pancreatic enzyme mix (ESMS, SIM of molecular ion). Type of series: in vitro ADME. Conditions: 0.025 mg/ml, 100 mM ammoniumbicarbonate pH 8.0, 37° C., 24 h in degradation solution, enzyme:substrate approx. 1:5. As to the method: (§1) The solution is left at 37° C. overnight.
(§2) Identification of degradation products furthermore involved the use of plasma desorption mass spectrometry (PDMS) with sample application on nitrocellulose coated targets and standard instrumental settings. The accuracy of the hereby determined masses is generally better than 0.1%.
(§3) Separation and isolation of degradation products was done using a HY-TACH C-18 reverse phase 4.6×105 mm HPLC column (Hewlett-Packard Company, Palo Alto, Calif.) with a standard acetonitril: TFA separation gradient. The HPLC system used was HP1090M (Hewlett-Packard Company, Palo Alto, Calif.).

The subject of a further series is carboxypeptidase Y and B. Put plainly: Metabolic stability in carboxypeptidase mix (ESMS, SIM of molecular ion). Type of series: in vitro ADME. Particulars: 0.025 mg/ml, 50 mM ammoniumacetate pH 4.5, 37° C., 24 h in degradation solution, enzyme:substrate approx. 1:5. The procedure:
as §1, §2, §3

For the substance Glucagon, in series [1], the “Pan. enzyme mix (stability)” value is on record as “− (Unstable (more than 20% decrease in SIM signal after 24 h in degradation solution))”. For the same substance, the “Carboxy-peptidase mix (stability)” value in the series on carboxypeptidase Y and B was “− (Unstable (more than 20% decrease in SIM signal after 24 h in degradation solution))”.
